The test system of one experiment is CD8^+ T cells. Put plainly: In vitro human CD8^+ T cell priming with peptide-pulsed DC. The experiment is classed as cell-based. The following applies: CD8^+ T cells of an HLA-A2.1-positive prostate cancer patient, peptide-pulsed autologous DC. How it is done:
(§1) In vitro human CD8^+ T cell priming with DC. Elutriated monocytes and lymphocytes were obtained from HLA-A2.1-positive patients or normal donors. To prepare DC, monocytes were cultured at 10^6 cells/ml in complete medium containing human IL-4 (1000 units/ml) and human GM-CSF (1000 units/ml). On day 2 and 4, half of the media was exchanged. To mature the DC, CD40 ligand trimer (Immunex, Seattle, Wash.) was added at 1 μg/ml on day 4 or 5, and then further cultured for 2 or 3 days. Cells were harvested on day 7, and then pulsed with 10 μM of peptides for 2 hours before γ-irradiation. 1×10^5 peptide-pulsed DC and 2×10^6 autologous CD8^+ T cells were mixed and cultured in 24-well plates. 10 units/ml IL-2 was added on day 2 during restimulation. Cells were restimulated every 7-9 days approximately 4-7 cycles.

Another experiment concerns MCF-7. Put plainly: CTL assay against human tumor cells (MCF-7). It is filed as cell-based. Particulars: 50:1 E/T ratio, targets pre-incubated with IFN-γ 72 hours. The procedure: as §1
(§2) CTL assay. For murine CTL, CD8^+ T cells from the immunized mice were restimulated with peptide-loaded splenocytes for one week as previously described (Oh et al., J Immunol 170:2523, 2003), and then applied to 5 hour ^51Cr release assays. Target cells were labeled with ^51Cr first and washed twice. Cells were then pulsed with peptides for 2 hours and used as target cells without further washing. For human CTL, target cells were also labeled with ^51Cr first, and then loaded with peptides. In the CTL assay against human tumor cells, target cells were incubated in the complete medium containing 1000 units/ml IFN-γ for 72 hours. The mean of triplicate samples was calculated, and the percentage of specific lysis was determined using the following formula: Percentage of specific lysis=100×[(experimental ^51Cr release−control ^51Cr release)/(maximum ^51Cr release−control ^51Cr release)]. The maximum release refers to counts from targets in 2.5% Triton X-100.

In a further experiment the test system is A2K^b transgenic mice. The experiment is described as follows: Immunization of A2K^b transgenic mice; murine CTL assay and intracellular IFN-γ staining. It is filed as in vivo. The procedure:
Immunizations. A2K^b transgenic mice were immunized with syngeneic peptide-loaded dendritic cells (DC), plasmid DNA expressing TARP, or the mixture of peptide and cytokine in incomplete Freund's adjuvant (IFA). For DC immunization, DC were pulsed with 10 μM peptide in serum-free RPMI for 2 hours at 37° C., and then mice were immunized subcutaneously (s.c.) with 1-3×10^5 DC without washing. DC were prepared from bone marrow as previously described (Celluzzi et al. J. Exp. Med. 183:283, 1996). Alternatively, mice were immunized intramuscularly with 100 μg plasmid DNA, pcDNA5/FRT/TARP, generated by inserting the TARP DNA into the pcDNA5/RFT (Invitrogen, Carlsbad, Calif.) vector. Mice were also immunized subcutaneously (s.c.) in the base of the tail with 100 μl of an emulsion containing 1:1 IFA and PBS with antigens and cytokines (50 nmol CTL epitope, 50 nmol HBV core 128-140 helper epitope, 3 μg of IL-12, and 5 μg of granulocyte macrophage colony stimulating factor (GM-CSF). IFA and cytokines were purchased from Sigma and Peptotech (Rocky Hill, N.J.), respectively.
as §2
Antibody and flow cytometry. FITC-labeled anti-mouse CD8 (53-6.7), CD11c, CD80 (B7-1), CD54 (ICAM-1), anti-human CD8 (RPA-T8), CD14 (M5E2), CD80 (B7-1), and CD86 (B7-2) were used for staining of cell surface molecules. For intracellular IFN-γ staining, cells were stained by following the manufacturer's protocol. All Abs and reagents were purchased from PharMingen. For flow cytometric analysis of cell surface, 5×10^5 cells were washed and resuspended in PBS containing 0.2% BSA and 0.1% sodium azide. Cells were incubated on ice with the appropriate antibody for 30 minutes and then washed. Samples were analyzed on a FACScan (BD Biosciences, Mountain View, Calif.). Background staining was assessed by use of an isotype control antibody. For tetramer staining, cells were incubated with FITC-labeled anti-CD8 for 10 minutes, and then stained with tetramers.

The next experiment has as its target T1, HLA-A2.1 molecules (Homo sapiens, UniProt P04439, D140Y/D185E/D98H/E176V/E277Q/G131W/G231S/I119V/I121R/I166T/I218V/L300P/L318F/N151K/N90K/P208A/P217A/Q86G/Q94H/R138H/R169H/T345S).
T1 construct: The T2 cell line is deficient in TAP1 and TAP2 transporter proteins and expresses low levels of HLA-A2.1; endogenous in cells; host or cells: T2 cell line (TAP1/TAP2-deficient)
The experiment is described as follows: T2-binding assay. Particulars: T2 cells. How it is done: T2-binding assay. Peptide binding capacity to HLA-A2.1 molecules was measured by using the T2 cell line according to a protocol previously described (Nijman et al., Eu. J. Immunol. 23:1215, 1993). T2 cells (3×10^5/well) were incubated overnight in 96-well plates with culture medium (1:1 mixture of RPMI 1640/EHAA containing 2.5% FBS, 100 U/ml penicillin, 100 μg/ml streptomycin) with 10 μg/ml β2-microglobulin (Sigma) and different concentrations of peptide. Cells were washed twice with cold PBS containing 2% FBS and incubated for 30 minutes at 4° C. with anti-HLA-A2.1 BB7.2 mAb ( 1/80 dilution from hybridoma supernatant). After washing, cells were stained with FITC-labeled goat anti-mouse Ig (PharMingen, San Diego, Calif.) and the level of HLA-A2.1 expression was measured by flow cytometry. HLA-A2.1 expression was quantified as fluorescence index (FI) according to the formula: FI=(mean fluorescence intensity with peptide-mean fluorescence intensity without peptide)/mean fluorescence intensity without peptide.

For experiment [1], the system named is peptide-pulsed C1R-A2.1 target cells. The experiment is described as follows: Human CTL 5-hour ^51Cr release assay on peptide-pulsed targets. The experiment is classed as cell-based. How it is done: as §1, §2

The source of these data is patent publication US8043623B2, “Immunogenic peptides for the treatment of prostate and breast cancer” (The Government of the United States of America as …, priority 2003, dated 2011).

Entries after “also recorded” stand apart in the source; their conditions may differ.

Consider “FLRNFSLMV (TARP peptide with a L9V substitution.) [TARP-29-37-9V]”, for which the “cycles of in vitro restimulation needed to detect peptide-specific CD8^+ T cells” value in the experiment on CD8^+ T cells was “at least five cycles”. Moreover, in the experiment with MCF-7, the “lytic activity against MCF-7 of CD8^+ CTL specific for the peptide” value is “higher lytic activity against MCF-7; also recorded: could kill human tumor cells”. The “cross-reactivity of murine CD8^+ CTL induced with the peptide: recognition of wild-type TARP-29-37 and other peptides on pulsed targets” value with A2K^b transgenic mice (Jurkat-HLA-A2 targets pulsed with peptides, ^51Cr release) is “slightly more potent in killing targets pulsed with wild-type TARP-29-37; also recorded: most immunogenic of the peptides in inducing CTLs specific for the wild-type sequence”. Also, the “killing of target cells pulsed with TARP-27-35 by murine CTL induced with the peptide” value with A2K^b transgenic mice (^51Cr release) was “could also kill target cells pulsed with TARP-27-35”. Further, in the experiment on A2K^b transgenic mice (mice immunized s.c. with peptide and cytokine in adjuvant, IFN-γ staining), the “frequency of CD8^+ T cells specific for the individual peptide, compared to wild-type TARP-29-37” value is “almost two-fold higher frequencies of CD8^+ T cells; also recorded: higher level of CD8^+ T cell responses than TARP-29-37”. Besides, the “binding affinity to HLA-A2.1 molecules compared with another peptide” value with HLA-A2.1 molecules is reported as “lower binding affinity to HLA-A2.1 than TARP-29-37-3A; also recorded: did enhance the binding affinity of wild-type peptide”. Further, the “recognition of TARP-27-35 by human CTL raised with the peptide” value in experiment [1] (C1R-A2.1 targets) was “to some extent”. For the same sequence, in experiment [1] (C1R-A2.1 targets pulsed with 10 μM peptides), the “cross-reactivity of human CD8^+ CTL raised with the peptide to other peptides (wild-type TARP-29-37, enhanced epitopes)” value is “could recognize both wild-type and TARP-29-37-3A comparably; also recorded: killed the wild-type peptide (TARP-29-37, SEQ ID NO: 5)-pulsed target cells efficiently; also recorded: to a similar degree to the immunogen”. Also, the “peptide concentration at which CTLs specific for TARP-29-37-9V recognize targets pulsed with the named peptide (avidity)” value in experiment [1] (label = peptide pulsed on targets, effector = TARP-29-37-9V-specific human CTL) stood at 0.001 µM.
